According to patent US12636275B2, “Pharmaceutical use of ketoamide-based compound” (Shanghai Institute of Materia Medica, Chinese Academy of …, priority 2020, dated 2026):
Where two headings read alike, the source gives them in different places.

Experiments:
[1] = system: 2019 novel coronavirus (2019-nCov); details: stated for positive control; read-out: EC50, inhibition of 2019-nCoV virus replication (positive compound CQ); cited from earlier work
human cathepsin L = human cathepsin L (Homo sapiens, UniProt P07711); assay: Inhibitory activity against human cathepsin L (FRET, Z-Phe-Arg-AMC substrate); format: biochemical; details: pH 5.5, 25° C.
Procedure: To determine the inhibitory activity of the compound against human cathepsin L (CatL): the enzyme level inhibitory activity against cathepsin L was determined by fluorescence resonance energy transfer (FRET) technique. In a 96-well plate, 10 μL buffer (50 mM CH3COONa, pH 5.5, 1 mM DTT, 2 mM EDTA) was added to each well, while 0.2 μL of compound (final concentrations were 100 nM, 10 nM, 1 nM, 0.1 nM and 0.01 nM, respectively) and 10 μL cathepsin L were added, and incubated at 25° C. for 15 min. Then 10 μL fluorescent substrate (Z-Phe-Arg-AMC, final concentration was 20 μM) diluted with buffer was added. The fluorescence parameters were determined by Tecan Infinite 200pro fluorescence spectrophotometer. The excitation wavelength and emission wavelength were 360 nm and 465 nm respectively, kept at 25° C., and the data were read after 30 min. A negative control was used, in which no compound was added to the control, and the rest was the same.

[2] = system: 2019 novel coronavirus (2019-nCov); assay: Inhibitory activity on replication of 2019 novel coronavirus (cytopathic effect, MTS, RD cells); format: cell-based; details: for virus inhibitory activity (in words): CQ as positive control, different concentration gradients; for EC50: Severe acute respiratory syndrome coronavirus 2, RD, read-out: EC50, inhibition of 2019-nCoV virus replication
2019-nCoV 3CL protease = target: T1, 2019-nCoV 3CL protease (Severe acute respiratory syndrome coronavirus 2, UniProt P0DTD1); assay: Inhibitory activity against 3CL protease of 2019 novel coronavirus (FRET); format: biochemical; details: for IC50: FRET, 37° C., substrate 20 μM
T1 construct: against 3CL protease of 2019 novel coronavirus (2019-nCoV 3CL^pro)
Procedure: To determine the inhibitory activity of the compound against 3CL protease of 2019 novel coronavirus (2019-nCoV 3CL^pro): the enzyme level inhibitory activity of inhibitors against 3CL protease was determined by fluorescence resonance energy transfer (FRET) technology. In a 96-well plate, 27.5 μL of buffer (20 mM Tris, 100 mM NaCl, 1 mM EDTA, pH 7.4) was added to each well, 2.5 μL compounds ([…], respectively) and 5 μL […] (final concentration was 3 μM) were added at the same time. Incubated at 37° C. for 15 min. Then 15 μL fluorescent substrate diluted with buffer (final concentration was 20 μM) was added. The fluorescence parameters were determined by Ge n5 fluorescence spectrophotometer. The excitation wavelength and emission wavelength were 340 nm and 490 nm respectively, kept at 37° C., and the data were read after 10 min. A negative control was used, in which no compound was added to the control, and the rest was the same.

[3] = Toxicity test in SD rats with repeated intravenous administration; format: in vivo
Description: The purpose of this experiment is to observe the potential toxicity of SD rats after intravenous DC406009 for 7 consecutive days and to determine the possible toxic target organs. To provide non-toxic dose and/or toxic dose for the subsequent toxicity test design and clinical trial protocol design. To assess the level of drug exposure in vivo, a toxicokinetic evaluation is accompanied.
36 SD rats were divided into 8 groups (3 in toxicity test group/gender/group, a total of 5 groups; 1 in toxic satellite group/gender/group, 3 groups), intravenous injection of solvent (5% DMSO/5% EtOH/40% PEG300/50% NaCl), 0.9% sodium chloride injection and DC406009 (5, 15, 30 mg/kg/day), once a day for 7 consecutive days, all animals were euthanized on Day 8. During the test, the following indicators were evaluated: toxicology (only samples were collected), clinical observation, body weight, food consumption, clinical pathology (hematology, hemagglutination, plasma biochemistry) and anatomical macroscopic morphological observation.

Chain of human cathepsin L (P07711 114-333): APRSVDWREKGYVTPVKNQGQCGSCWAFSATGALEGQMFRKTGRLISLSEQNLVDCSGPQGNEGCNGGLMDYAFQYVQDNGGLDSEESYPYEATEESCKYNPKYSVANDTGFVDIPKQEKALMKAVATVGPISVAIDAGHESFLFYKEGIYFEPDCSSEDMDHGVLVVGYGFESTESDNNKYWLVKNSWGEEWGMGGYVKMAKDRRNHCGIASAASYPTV

Compound | IC50 (human cathepsin L) [nM] | virus inhibitory activity (in words) [2] | EC50 [2] [nM] | IC50 (2019-nCoV 3CL protease) [µM] | other results
CCN(CC)CCCC(C)Nc1ccnc2cc(Cl)ccc12 (centres unmarked) [CQ] | – | – | – | – | EC50 [1]: 1130 nM
O=C(NCc1ccccc1)C(=O)[C@H](C[C@@H]1CCCNC1=O)NC(=O)[C@H](CC1CCCCC1)NC(=O)c1cc2ccccc2[nH]1 [Example A5, N—((S)-1-(((S)-4-(benzylamino)-3,4-dione-1-((S)-2-oxopiperidin-3-yl)but-2-yl)amino)-3-cyclohexyl-1-oxopropan-2-yl)-1H-indole-2-carboxamide] | 0.45 ± 0.02 | – | – | – | –
O=C(NCc1ccccc1)C(=O)[C@H](C[C@@H]1CCCNC1=O)NC(=O)[C@H](CC1CCCCC1)NC(=O)c1cc2ccccc2o1 [Example A13, N—((S)-1-(((S)-4-(benzylamino)-3,4-dione-1-((S)-2-oxopiperidin-3-yl)but-2-yl)amino)-3-cyclohexyl-1-oxopropan-2-yl)-benzofuran-2-carboxamide] | 1.36 ± 0.04 | excellent virus inhibitory activity | 9240 | 2.4 | –
O=C(NCc1ccccc1)C(=O)[C@H](C[C@@H]1CCNC1=O)NC(=O)[C@H](CC1CCCCC1)NC(=O)c1ccc2ccccc2n1 [Example A42, N—((S)-1-(((S)-4-(benzylamino)-3,4-dione-1-((S)-2-oxopyrrolidin-3-yl)but-2-yl)amino)-3-cyclohexyl-1-oxopropan-2-yl)-quinoline-2-carboxamide] | – | excellent virus inhibitory activity | 580 | 3 | virus inhibitory activity (in words) ([2]; listed as 4001): better than that of positive control CQ
O=C(NCc1ccccc1)C(=O)[C@H](C[C@@H]1CCCNC1=O)NC(=O)[C@H](Cc1cccc(F)c1)NC(=O)c1cc2ccccc2o1 [Example A284] | 0.45 ± 0.01 | – | – | – | –
O=C(NCc1ccccc1)C(=O)[C@H](C[C@@H]1CCCNC1=O)NC(=O)[C@H](Cc1ccc(F)cc1)NC(=O)c1cc2ccccc2o1 [Example A289] | 0.66 ± 0.008 | excellent virus inhibitory activity | 296 | – | virus inhibitory activity (in words) ([2]; listed as 6009): better than that of positive control CQ; inhibition at 1 µM (2019-nCoV 3CL protease; compound 1 uM, read-out: 1 uM inhibition rate): 13.5%; inhibition at 10 µM (2019-nCoV 3CL protease; compound 10 uM, read-out: 10 uM inhibition rate): 40.8%; tolerability (in words) ([3]; SD rats, 5, 15, 30 mg/kg/day intravenously once a day for 7 consecutive days): animals can tolerate; MTD at 7 days ([3]; both sexes, SD, rat, in vivo, iv): > 30 mg/kg/day
O=C(NCc1ccccc1)C(=O)[C@H](C[C@@H]1CCCNC1=O)NC(=O)[C@H](Cc1ccc(F)c(F)c1)NC(=O)c1cc2ccccc2o1 [Example A290] | 0.47 ± 0.06 | – | – | – | –
O=C(NCc1ccccc1)C(=O)[C@H](C[C@@H]1CCNC1=O)NC(=O)[C@H](Cc1ccc(F)cc1)NC(=O)c1ccc2ccccc2n1 [Example A306, N—((S)-1-(((S)-4-(benzylamino)-3,4-dione-1-((S)-2-oxopyrrolidin-3-yl)but-2-yl)amino)-3-(4-fluorophenyl)-1-oxopropan-2-yl)-quinoline-2-carboxamide] | – | – | – | 6.7 | –
O=C(NC1CC1)C(=O)[C@H](C[C@@H]1CCCNC1=O)NC(=O)[C@H](CC1CCCCC1)NC(=O)c1cc2ccccc2o1 [Example A309, N—((S)-1-(((S)-4-(cyclopropylamino)-3,4-dione-1-((S)-2-oxopiperidin-3-yl)but-2-yl)amino)-3-cyclohexyl-1-oxopropan-2-yl)-benzofuran-2-carboxamide] | 0.63 ± 0.08 | – | – | – | –
O=C(NC1CC1)C(=O)[C@H](C[C@@H]1CCCNC1=O)NC(=O)[C@H](Cc1ccc(F)cc1)NC(=O)c1cc2ccccc2o1 [Example A310, N—((S)-1-(((S)-4-(cyclopropylamino)-3,4-dione-1-((S)-2-oxopiperidin-3-yl)but-2-yl)amino)-3-(4-fluorophenyl)-1-oxopropan-2-yl)-benzofuran-2-carboxamide] | 0.57 ± 0.01 | – | – | – | –
